Patent US20240067639A1, “SMALL MOLECULES THAT TARGET THE RNA THAT CAUSES ALS” (EXPANSION THERAPEUTICS, INC., priority 2020, published 2024)

target: biotinylated r(G4C2)8 RNA and hnRNP H1-His6; assay: TR-FRET hnRNP H binding assay; settings: Table D
Procedure: TR-FRET hnRNP H Binding Assay. The TR-FRET assays were performed as previously described (Disney et al., 2012) except the final concentrations of biotinylated r(G4C2)8 (SEQ ID NO: 2) RNA and hnRNP H1-His6 were 80 nM and 75 nM, respectively. The RNA was folded by heating to 95° C. for 5 min in 1× Folding Buffer followed by slowly cooling to room temperature. The buffer was adjusted to 1×TR-FRET Assay Buffer followed by addition of compound. The mixture was incubated for 15 min at room temperature and then hnRNP H1-His6 was added. After an additional 15 min incubation, streptavidin-XL665 (HTRF, Cisbio Bioassays) and anti-His6-Tb (HTRF, Cisbio Bioassays) were added to a final concentration of 40 nM and 0.44 ng/μL, respectively. After incubating for 1 h, TR-FRET was measured as previously described. The IC50s were either calculated by fitting the equation (1) in Graphpad Prism.

Row | SMILES | Ki [µM]
1 | COc1ccc2c(c1)c1cc3cnccc3c(C)c1n2Cc1ccccc1 [Compound 17, 6-benzyl-9-methoxy-5-methyl-6H-pyrido[4,3-b]carbazole] | > 200
2 | COc1ccc2c(c1)c1cc3cnccc3c(C)c1n2Cc1ccncc1 [Compound 16, 9-methoxy-5-methyl-6-(pyridin-4-ylmethyl)-6H-pyrido[4,3-b]carbazole] | > 200
3 | Cc1c2ccncc2cc2c3cc(OCC#N)ccc3n(C)c12 [Compound 13, 2-((5,6-dimethyl-6H-pyrido[4,3-b]carbazol-9-yl)oxy)acetonitrile] | > 200
4 | COc1cccc2c1c1cc3c(C(=O)N[C@H](C)CN(C)C)nccc3c(C)c1n2C [Example 65, (R)—N-(1-(dimethylamino)propan-2-yl)-10-methoxy-5,6-dimethyl-6H-pyrido[4,3-b]carbazole-1-carboxamide] | 4.2
5 | Cc1c2ccncc2cc2c3cc(OCC(=O)O)ccc3n(C)c12 [Compound 4b, 2-((5,6-dimethyl-6H-pyrido[4,3-b]carbazol-9-yl)oxy)acetic acid] | > 200
6 | Cc1c2ccncc2cc2c3cc(OCC(=O)NCCN(C)C)ccc3n(C)c12 [Example 59, 2-((5,6-dimethyl-6H-pyrido[4,3-b]carbazol-9-yl)oxy)-N-(2-(dimethylamino)ethyl)-acetamide] | 1.3
7 | Cn1c2ccc(OCCN3CCOCC3)cc2c2cc3cnccc3cc21 [Example 46, 4-[2-(6-methylpyrido[4,3-b]carbazol-9-yl)oxyethyl]morpholine] | 4.6
8 | COc1ccc2c(c1)c1cc3cnccc3c(C)c1n2Cc1cnn(C)c1 [Compound 14, 9-methoxy-5-methyl-6-((1-methyl-1H-pyrazol-4-yl)methyl)-6H-pyrido[4,3-b]carbazol] | > 200
9 | Cc1c2ccncc2cc2c3cc(OCCN4CCC(F)(F)CC4)ccc3n(C)c12 [Example 40, 9-(2-(4,4-difluoropiperidin-1-yl)ethoxy)-5,6-dimethyl-6H-pyrido[4,3-b]carbazole] | > 200
10 | COc1ccc2[nH]c3c(c2c1)C(=O)c1cnccc1C3=O [Example 47, 9-methoxy-5H-pyrido[4,3-b]carbazole-5,11(6H)-dione] | > 200
11 | Cc1c2ccncc2cc2c3cc(OCC(=O)NCCCN(C)C)ccc3n(C)c12 [Example 58, 2-((5,6-dimethyl-6H-pyrido[4,3-b]carbazol-9-yl)oxy)-N-(3(dimethylamino)propyl)-acetamide] | 1
12 | COc1ccc2[nH]c3c(C)c4ccncc4c(O)c3c2c1 [Example 48, 9-methoxy-5-methyl-6H-pyrido[4,3-b]carbazol-11-ol] | > 200
13 | COc1ccc2c(c1)c1cc3cnccc3c(C)c1n2CC1=NCCN1 [Compound 21, 6-((4,5-dihydro-1H-imidazol-2-yl)methyl)-9-methoxy-5-methyl-6H-pyrido[4,3-b]carbazole] | > 200
14 | COc1ccc2oc3c(C)c4ccncc4cc3c2c1 [Example 66, 9-methoxy-5-methyl-benzofuro[2,3-g]isoquinoline] | > 200
15 | COc1ccc2c(c1)c1cc3cnccc3c(C)c1n2CCN(C)C [Compound 20, 2-(9-methoxy-5-methyl-6H-pyrido[4,3-b]carbazol-6-yl)-N,N-dimethylethan-1-amine] | > 200

same assay, conditions: Table F

Row | SMILES | Ki [µM]
16 | Cc1c2ccnc(C(C)C)c2cc2c3cc(C(=O)NCCN(C)C)ccc3n(C)c12 [Compound 238, N-(2-(dimethylamino)ethyl)-1-isopropyl-5,6-dimethyl-6H-pyrido[4,3-b]carbazole-9-carboxamide] | 20
17 | Cn1c2ccc(OCCN3CCOCC3)cc2c2cc3ncccc3cc21 [Compound 225, 4-(2-((6-methyl-6H-pyrido[3,2-b]carbazol-9-yl)oxy)ethyl)morpholine] | > 200
18 | Cc1c2ccncc2cc2c3cc(C(=O)OCCN(C)C)ccc3n(C)c12 [Compound 239, 2-(dimethylamino)ethyl 5,6-dimethyl-6H-pyrido[4,3-b]carbazole-9-carboxylate] | 24
19 | CN(C)CCOc1ccc2c(c1)c1cc3ncccc3cc1n2C [Compound 226, N,N-dimethyl-2-((6-methyl-6H-pyrido[3,2-b]carbazol-9-yl)oxy)ethanamine] | 13

system: RAN translation of (G4C2)66-No ATG-GFP in HEK293T cells; assay: Cell-based assay of RAN translation inhibition (GFP/mCherry reporter); settings: Homo sapiens, HEK-293T, 24 h, Table D; HEK293T, 24 h treatment; read-out: RANT IC25

Row | SMILES | IC25 [µM]
20 | COCCNC(=O)c1ccc2c(c1)c1cc3cnccc3c(C)c1n2C [Example 79, N-(2-methoxyethyl)-5,6-dimethyl-6H-pyrido[4,3-b]carbazole-9-carboxamide] | 1.1
21 | Cc1c2ccncc2cc2c3cc(OCCN4CCCC4)ccc3n(C)c12 [Compound 7, 5,6-dimethyl-9-(2-(pyrrolidin-1-yl)ethoxy)-6H-pyrido[4,3-b]carbazole] | > 5
22 | Cc1c2ccncc2cc2c3cc(C(=O)N4CCNCC4)ccc3n(C)c12 [Example 72, (5,6-dimethyl-6H-pyrido[4,3-b]carbazol-9-yl)(piperazin-1-yl)methanone] | > 5
23 | Cc1c2ccncc2cc2c3cc(C(=O)NCCN)ccc3n(C)c12 [Example 74, N-(2-aminoethyl)-5,6-dimethyl-6H-pyrido[4,3-b]carbazole-9-carboxamide] | > 5

same assay, conditions: Homo sapiens, HEK-293T, 24 h, read-out: RANT IC25

Row | SMILES | IC25 [µM]
24 | Cc1c2ccncc2cc2c3cc(OCCN4CCC(O)CC4)ccc3n(C)c12 [Compound 228, 1-(2-((5,6-dimethyl-6H-pyrido[4,3-b]carbazol-9-yl)oxy)ethyl)piperidin-4-ol] | 1.3

same assay, conditions: Homo sapiens, HEK-293T, read-out: RANT IC50

Row | SMILES | IC50 [µM]
25 | Cc1c2ccncc2cc2c3cc(Oc4ccccn4)ccc3n(C)c12 [Compound 305, 5,6-dimethyl-9-(pyridin-2-yloxy)-6H-pyrido[4,3-b]carbazole] | 18

same assay, conditions: Homo sapiens, HEK-293T; Table E; inhibition of RAN translation, HEK293T; read-out: IC50

Row | SMILES | IC50 [µM]
26 | COc1ccc2[nH]c3c(C)c4ccnc(C(=O)NCCN)c4cc3c2c1 [Compound 208] | 2.2
27 | CCCNC(=O)c1nccc2c(C)c3[nH]c4ccc(OC)cc4c3cc12 [Compound 206] | > 12.5
28 | COc1ccc2c(c1)c1cc3c(C(=O)NCCN(C)C)nccc3c(C)c1n2C [Compound 211] | 3.1
29 | COc1ccc2c(c1)c1cc3c(C(=O)N[C@H](C)CN(C)C)nccc3c(C)c1n2C [Compound 212, (R)—N-(1-(dimethylamino)propan-2-yl)-9-methoxy-5,6-dimethyl-6H-pyrido[4,3-b]carbazole-1-carboxamide] | 3.1
30 | CCOC(=O)c1nccc2c(C)c3c(cc12)c1cc(OC)ccc1n3C [Compound 204, Ethyl-9-methoxy-5,6-dimethyl-6H-pyrido[4,3-b]carbazole-1-carboxylate] | 12.5
31 | COc1ccc2[nH]c3c(C)c4ccnc(C(=O)NCCO)c4cc3c2c1 [Compound 207] | 6
32 | COc1ccc2[nH]c3c(C)c4ccnc(C(=O)NCCCN(C)C)c4cc3c2c1 [Compound 210] | 10.3
33 | COc1ccc2[nH]c3c(C)c4ccnc(C(=O)NCCN(C)C)c4cc3c2c1 [Compound 209] | 3.1
34 | CCOC(=O)c1nccc2c(C)c3[nH]c4ccc(OC)cc4c3cc12 [Compound 202, Ethyl-9-methoxy-5-methyl-6H-pyrido[4,3-b]carbazole-1-carboxylate] | 12
35 | CCOC(=O)C1=NCCc2c1cc1c([nH]c3ccc(OC)cc31)c2C [Compound 203] | > 12.5
36 | COCCNC(=O)c1nccc2c(C)c3[nH]c4ccc(OC)cc4c3cc12 [Compound 205] | 12.5

same assay, conditions: Homo sapiens, HEK-293T; Table G; HEK293T; read-out: RANT IC50

Row | SMILES | IC50 [µM]
37 | Cc1c2ccncc2cc2c3cc(C(=O)NCCOC(C)(C)C)ccc3n(C)c12 [Compound 301, N-(2-(tert-butoxy)ethyl)-5,6-dimethyl-6H-pyrido[4,3-b]carbazole-9-carboxamide] | 13
